From patent US5508304A, “Glucagon antagonists and methods relating thereto” (ZymoGenetics, Inc., priority 1994, dated 1996)

Columns and labels:
glucagon receptor = molecular target: T1, glucagon receptor (Rattus norvegicus, UniProt P30082); test: Adenylate cyclase assay: glucagon-stimulated cAMP production in liver plasma membranes (Amersham Scintillation Proximity Assay kit); format: biochemical; conditions: for cAMP response to glucagon, serial dilutions of test substance: fixed 5 nM glucagon stock, 5 μl per well; for inhibition of cAMP activity with increasing concentration of test substance (FIG. 7): fixed concentration of glucagon
T1 construct: Liver plasma membranes for use in adenylate cyclase assays were prepared; from tissue; host or cells: rat liver plasma membranes
Experimental: Liver plasma membranes for use in adenylate cyclase assays were prepared essentially as described by Neville et al. (Biochim. Biophys. Acta 154:540-552, 1968) as modified by Pohl (Methods in Receptor Research, Blecher (ed.), New York, pp. 160-164, 1976). Twenty rats were euthanized by decapitation, and the livers were removed and cooled to 4° C. After cooling, the livers were maintained at 4° C. during the membrane preparation. The approximate volume of the livers was determined. Three volumes of medium (1 mM NaHCO3, 0.5 mM CaCl2) were added to the livers, and the liver tissue was roughly minced with scissors. The minced tissue was divided into two parts, and each part was homogenized for thirty seconds in a Waring-type blender at full speed. After homogenization, the homogenates were each transferred to a sieve with a 1.5 mm pore size, and the homogenates were strained through the sieve. The straining procedure was repeated for each homogenate through a finer screen. The strained homogenates were combined, and medium was added to a final volume of one liter. The homogenate was further homogenized with a Dounce homogenizer using eight vigorous strokes of the loose pestle. The homogenates were filtered through four layers of cheesecloth. The strained homogenates were centrifuged at approximately 150×g in a swinging bucket rotor for 20 minutes at 4° C. The supernalant was discarded, and the precipitate was resuspended in 500 ml of medium and homogenized in a Dounce homogenizer with three strokes of the loose pestle. The centrifugation was repeated, and the resulting precipitate was resuspended in 250 ml of medium. The homogenate was centrifuged as described, and the precipitate was suspended in 50 to 100 ml of medium. The suspension was homogenized in a Dounce homogenizer with three strokes of the loose pestle. Sucrose from a 69% sucrose solution was added to the suspension to a final sucrose concentration of 44.0±0.1%. The solution was centrifuged in an ultracentrifuge at approximately 100,000×g for 150 minutes. The membranes were removed from the top of the tube with a spoon. The membranes were stored at -80° C.
Adenylate cyclase assays were carried out in the presence and absence of […] diluted in DMSO. Glucagon (Mallinkrodt Inc. St. Louis, Mo.) was dissolved in 10% acetic acid and lyophilized in 25-μg portions. The lyophilized glucagon was dissolved in 100 μl of 0.05M HCl and left for three minutes, after which the glucagon was serially diluted in buffer (2.5% human serum albumin (Grade 5, Sigma Chemical Co., St. Louis, Mo.) in 0.1M HEPES, 0.15M NaCl, pH 7.4) to final concentrations of between 0 and 100 nM. Aliquots of the membrane preparations were thawed and diluted with water to a protein concentration of approximately 3-5 mg/ml.
For each 96-well assay plate, triplicate samples were assayed in the presence and absence of 20 μM skyrin. […] Five microliters of 20 μM skyrin in DMSO or 5 μl of DMSO alone was added to each well. Fifty microliters of incubation mixture (0.1% human serum albumin (Grade 5, Sigma), 15 mM MgCl2, 1 mM ATP, 0.9 mM IBMX (3-isobutyl-1-methylxanthine, Sigma), 15 mM creatine phosphate, and 5 mg/ml creatine phosphokinase in 50 mM Tris-HCl (pH 7.4) was then added to each well. […]
The cAMP produced in each reaction was determined by assaying 10 μl of each sample using an Amersham Scintillation Proximity Assay kit (Amersham, Arlington Heights, Ill.). […]

[1] = molecular target: T2, VIP-stimulated non-glucagon G protein-coupled receptors in liver membranes (Rattus norvegicus, UniProt P30083); test: Adenylate cyclase assay with VIP in place of glucagon; format: biochemical; conditions: serial dilutions of VIP, with and without skyrin; FIG. 4
T2 construct: Liver plasma membranes for use in adenylate cyclase assays were prepared; from tissue; host or cells: rat liver plasma membranes
T2 sequence (P30083 31-459): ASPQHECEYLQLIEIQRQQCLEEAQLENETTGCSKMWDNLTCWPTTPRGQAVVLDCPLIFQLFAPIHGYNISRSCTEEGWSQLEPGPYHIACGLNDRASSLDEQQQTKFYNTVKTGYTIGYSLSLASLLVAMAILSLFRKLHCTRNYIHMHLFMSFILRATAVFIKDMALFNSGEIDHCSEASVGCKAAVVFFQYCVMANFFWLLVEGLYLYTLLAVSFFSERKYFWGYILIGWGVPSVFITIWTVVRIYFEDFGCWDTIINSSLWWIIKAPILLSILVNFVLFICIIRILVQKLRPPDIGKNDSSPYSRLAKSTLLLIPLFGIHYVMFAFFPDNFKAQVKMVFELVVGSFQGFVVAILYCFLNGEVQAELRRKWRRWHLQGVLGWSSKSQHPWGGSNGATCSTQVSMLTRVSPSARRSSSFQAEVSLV
Experimental: (§1) Liver plasma membranes for use in adenylate cyclase assays were prepared essentially as described by Neville et al. (Biochim. Biophys. Acta 154:540-552, 1968) as modified by Pohl (Methods in Receptor Research, Blecher (ed.), New York, pp. 160-164, 1976). Twenty rats were euthanized by decapitation, and the livers were removed and cooled to 4° C. After cooling, the livers were maintained at 4° C. during the membrane preparation. The approximate volume of the livers was determined. Three volumes of medium (1 mM NaHCO3, 0.5 mM CaCl2) were added to the livers, and the liver tissue was roughly minced with scissors. The minced tissue was divided into two parts, and each part was homogenized for thirty seconds in a Waring-type blender at full speed. After homogenization, the homogenates were each transferred to a sieve with a 1.5 mm pore size, and the homogenates were strained through the sieve. […]
(§2) The cAMP produced in each reaction was determined by assaying 10 μl of each sample using an Amersham Scintillation Proximity Assay kit (Amersham, Arlington Heights, Ill.).
(§3) The specificity of the skyrin antagonist activity was assessed by replacing the serial dilutions of glucagon with serial dilutions of vasoactive intestinal peptide (VIP; Sigma Chemical Co., St. Louis, Mo.), calcitonin gene-related peptide (CGRP), forskolin (Calbiochem, San Diego, Calif.) and GTP-γS. […]

[2] = molecular target: T3, glucagon binding to rat liver membranes (Rattus norvegicus, UniProt P30082); test: 125I-glucagon binding to rat liver membranes; conditions: 20 μl of 56 μM skyrin vs DMSO; 30 min at 30° C.; FIG. 8
T3 construct: 0.2 mg of rat liver membranes in 20 μl in water; from tissue; host or cells: rat liver membranes
Experimental: Glucagon binding to rat liver membranes in the presence and absence of skyrin was determined in this experiment. Reactions tubes were prepared, each of which contained 20 μl of serially diluted unlabeled glucagon from 10^-5 M to 10^-10 M, 100 μl of 2× binding buffer (100 mM HEPES, pH 7.6), 200 mM NaCl, 2 mM EDTA, 2.0% bovine serum albumin (BSA), 1.0 mg/ml of bacitracin (Sigma Chem. Co.), approximately 0.1 nmoles of ^125 I-glucagon (Amersham) in 10 mM acetic acid/0.5% BSA with a specific activity of 2000 Ci/mmole, 20 μl of 56 μM skyrin (dissolved and diluted in DMSO) or DMSO, and water to achieve a final volume of 180 μl. The reaction was initiated by the addition of 0.2 mg of rat liver membranes in 20 μl in water. The reactions were incubated for 30 minutes at 30° C. After incubation the tubes were centrifuged at high speed in a microfuge for 10 minutes at 4° C. The supernatants were discarded, and the radioactivity in the pellets was quantitated with a gamma-counter (the level of radioactivity in a sample indicated the total binding of glucagon to the rat liver membranes). […] Based on this experiment, it is believed that the glucagon antagonists of this invention, including skyrin and skyrin analogs, function as glucagon antagonists by interrupting postglucagon binding events.

rat liver mitochondria = conditions: cited from earlier work
[3] = test system: rat leukemia cell mitochondria; conditions: cited from earlier work
[4] = test system: GTPγS-stimulated cAMP production; test: Adenylate cyclase assay with GTPγS, receptor-independent stimulation of cAMP production; format: biochemical, rat
Experimental: as §1, §2, §3

[5] = molecular target: T4, CGRP-stimulated non-glucagon G protein-coupled receptors in liver membranes (Rattus norvegicus, UniProt Q63118); test: Adenylate cyclase assay with CGRP in place of glucagon; format: biochemical; conditions: serial dilutions of CGRP, with and without skyrin; FIG. 5
T4 construct: Liver plasma membranes for use in adenylate cyclase assays were prepared; from tissue; host or cells: rat liver plasma membranes
Experimental: as §1, §2, §3

[6] = test system: rice dwarf virus-RNA transcriptase; conditions: Yangai et al. 1976; cited from earlier work
[7] = Stark et al. 1978; cited from earlier work
[8] = test system: forskolin-stimulated cAMP production; test: Adenylate cyclase assay with forskolin, receptor-independent stimulation of cAMP production; format: biochemical, rat; conditions: presence and absence of 0.02 mM skyrin
Experimental: as §1, §2, §3

T1 sequence (P30082 27-485): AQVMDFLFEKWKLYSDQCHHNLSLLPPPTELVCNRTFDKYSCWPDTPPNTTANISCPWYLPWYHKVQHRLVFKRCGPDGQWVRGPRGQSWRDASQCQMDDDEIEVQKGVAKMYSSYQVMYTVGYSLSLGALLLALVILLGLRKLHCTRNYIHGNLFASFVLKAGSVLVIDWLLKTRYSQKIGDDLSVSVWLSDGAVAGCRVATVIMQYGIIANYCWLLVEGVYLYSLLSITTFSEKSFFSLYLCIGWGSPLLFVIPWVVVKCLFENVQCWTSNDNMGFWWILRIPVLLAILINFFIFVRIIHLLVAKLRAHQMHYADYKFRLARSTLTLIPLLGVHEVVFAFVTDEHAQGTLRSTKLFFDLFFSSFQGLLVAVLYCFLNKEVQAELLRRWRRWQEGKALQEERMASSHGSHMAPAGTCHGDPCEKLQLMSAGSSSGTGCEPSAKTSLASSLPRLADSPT
T3 sequence (P30082 27-485): as above
T4 sequence (Q63118 24-464): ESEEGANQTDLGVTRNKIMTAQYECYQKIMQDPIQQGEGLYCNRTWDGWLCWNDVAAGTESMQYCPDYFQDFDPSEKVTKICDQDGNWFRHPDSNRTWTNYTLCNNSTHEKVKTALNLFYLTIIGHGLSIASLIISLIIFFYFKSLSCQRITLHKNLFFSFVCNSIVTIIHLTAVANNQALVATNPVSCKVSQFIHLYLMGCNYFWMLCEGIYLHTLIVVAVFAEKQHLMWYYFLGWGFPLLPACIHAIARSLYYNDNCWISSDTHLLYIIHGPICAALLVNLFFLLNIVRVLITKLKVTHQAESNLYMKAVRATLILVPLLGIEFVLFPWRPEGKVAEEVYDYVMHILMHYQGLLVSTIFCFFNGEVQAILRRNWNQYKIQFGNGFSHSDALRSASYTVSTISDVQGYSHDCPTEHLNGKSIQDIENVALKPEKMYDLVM
T4 sequence (Q9JJ74 27-148 partner): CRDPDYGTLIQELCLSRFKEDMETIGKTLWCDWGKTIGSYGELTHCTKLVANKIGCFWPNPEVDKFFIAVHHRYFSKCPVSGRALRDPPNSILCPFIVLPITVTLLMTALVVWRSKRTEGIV

Row | SMILES | cAMP response to glucagon, serial dilutions of test substance (glucagon receptor) | inhibition of cAMP activity with increasing concentration of test substance (FIG. 7) (glucagon receptor) | stimulation of cAMP production by VIP [1] | binding of glucagon to rat liver membrane [2] | uncoupling of oxidative phosphorylation (rat liver mitochondria) | uncoupling of oxidative phosphorylation [3] | cAMP levels produced by GTPγS ([4]; presence and absence of 0.02 mM skyrin) | GTPγS-stimulated cAMP levels (FIG. 6) ([4]; presence of 0.2 mM skyrin as printed) | cAMP response to glucagon (glucagon receptor; 20 μM skyrin in DMSO vs DMSO alone, glucagon 0-100 nM, FIG. 3) | stimulation of cAMP production by CGRP [5] | inhibition of rice dwarf virus-RNA transcriptase [6] | mutagenicity [7] | cAMP levels produced by forskolin [8]
1 | Cc1cc(O)c2c(c1)C(=O)c1c(c(O)cc(O)c1-c1c(O)cc(O)c3c1C(=O)c1cc(CO)cc(O)c1C3=O)C2=O [oxyskyrine] | inhibited cAMP response to glucagon | increase in inhibition of cAMP activity | – | – | – | – | – | – | – | – | – | – | –
2 | Cc1cc(O)c2c(c1)C(=O)c1c(c(O)cc(O)c1-c1c(O)cc(O)c3c1C(=O)c1cc(C)cc(O)c1C3=O)C2=O [skyrin] | inhibited cAMP response to glucagon | increase in inhibition of cAMP activity | did not affect the stimulation | increased binding of glucagon | uncouple oxidative phosphorylation | uncouple oxidative phosphorylation | unaffected | uneffected | inhibited the cAMP response to glucagon | did not affect the stimulation | selectively inhibit | non-mutagenic | unaffected
